According to patent US9447047B2 (priority 2012, dated 2016):
pIC50: −log10 of the molar value. “Also recorded” adds a separate entry of the source. Where two headings read alike, the source gives them in different places.

Key:
[1] = tested on: HIV-1 transcription in CEM-GFP cells; assay: Tat-dependent HIV-1 transcription LTR-GFP reporter assay in CEM-GFP cells infected with Ad-Tat; format: cell-based; conditions: for IC50: Human immunodeficiency virus 1, CEM-GFP, 48 h, read-out: Inhibition of HIV-1 Transcription in CEM-GFP cells (IC50, μM)
CEM cells [2] = assay: cells; conditions: Homo sapiens, CCRF-CEM; for IC50: read-out: Toxicity in CEM cells, (IC50, μM); for pIC50: read-out: Toxicity in CEM cells, IC50
[3] = tested on: Tat-driven nuclear localization of PP1α; format: cell-based
EBOV transcription = format: cell-based
[4] = tested on: Tat-induced HIV transcription in 293T cells; assay: Tat-induced HIV transcription in 293T cells transfected with HIV-1 LTR reporter and Tat vectors; format: cell-based
HIV-1 = assay: Inhibition of HIV-1 replication; format: cell-based
EBOV VP30 = format: cell-based
EBOV-eGFP = format: cell-based
[5] = Control cell viability assays (FIG. 18)
293T cells = assay: Global cellular proteome of 293T cells by LC-MS-MS; conditions: 10 μM for 18 h
[6] = tested on: interaction of Tat with PP1α; format: cell-based; conditions: 10 μM, 293T cells
[7] = molecular target: PP1 association with NIPP1, PNUTS and Tat (Homo sapiens, UniProt P62136); format: cell-based
PP1α = PP1α (Homo sapiens, UniProt P62136); assay: Dephosphorylation of generic KT(pT)IRR peptide by recombinant PP1α (malachite green); format: biochemical
CEM cells [8] = tested on: CEM cells
[9] = Human immunodeficiency virus 1; read-out: 50% Inhibition of HIV-1 replication

Chain of PP1 association with NIPP1, PNUTS and Tat (P62136 2-330 limits assumed): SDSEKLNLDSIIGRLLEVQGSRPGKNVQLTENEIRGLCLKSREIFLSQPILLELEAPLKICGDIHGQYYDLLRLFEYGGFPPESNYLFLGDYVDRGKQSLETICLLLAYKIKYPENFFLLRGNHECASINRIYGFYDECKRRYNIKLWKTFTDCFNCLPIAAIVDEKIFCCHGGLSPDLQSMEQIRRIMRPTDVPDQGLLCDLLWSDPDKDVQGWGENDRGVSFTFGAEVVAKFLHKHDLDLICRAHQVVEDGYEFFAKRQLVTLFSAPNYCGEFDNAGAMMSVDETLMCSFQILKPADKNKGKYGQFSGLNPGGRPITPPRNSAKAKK
Chain of PP1α (P62136 whole entry): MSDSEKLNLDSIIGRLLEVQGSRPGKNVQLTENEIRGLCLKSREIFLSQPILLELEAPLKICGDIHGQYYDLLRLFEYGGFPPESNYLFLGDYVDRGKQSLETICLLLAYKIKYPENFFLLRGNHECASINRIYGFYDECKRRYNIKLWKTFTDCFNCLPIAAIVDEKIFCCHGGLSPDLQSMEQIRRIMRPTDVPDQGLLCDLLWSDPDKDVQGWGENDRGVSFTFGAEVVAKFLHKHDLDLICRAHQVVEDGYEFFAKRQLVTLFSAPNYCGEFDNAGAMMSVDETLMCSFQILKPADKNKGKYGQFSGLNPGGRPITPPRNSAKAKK

O=S(=O)(Nc1ccc(S(=O)(=O)N2CCC(Cc3ccccc3)CC2)cn1)c1ccccc1 [T5481237]
IC50 [1]: 15 µM | IC50 (CEM cells [2]): 20 µM

O=C(CNC(=O)c1ccccc1SCC(=O)NC12CC3CC(CC(C3)C1)C2)Nc1ccc(Cl)cc1 [T5498680]
IC50 [1]: 5 µM | IC50 (CEM cells [2]): 5 µM

CC(OC(=O)c1ccccc1SCC(=O)Nc1ccc2c(c1)OCO2)C(=O)NCCC1=CCCCC1 (stereo not drawn) [T5369370]
IC50 [1]: 10 µM | IC50 (CEM cells [2]): 15 µM

CCNC(=O)NC(=O)C(C)OC(=O)c1c2c(nc3ccccc13)/C(=C/c1ccc(OC)c(OC)c1)CC2 (stereo not drawn) [1E7-03]
translocation of Tat and PP1 into the nucleus ([3]; fluorescence in nucleus and cytoplasm fractions): inhibited | EBOV transcription (EBOV transcription): inhibits EBOV transcription | potency in HIV-1 transcription inhibition in 293T cells (comparison) [4]: equally potent as 1E7 | HIV-1 inhibition (HIV-1; FIG. 18): potent HIV-1 inhibitor | pIC50 (HIV-1; [9]): 5.52 | VP30 phosphorylation (EBOV VP30): increased | increase of VP30 phosphorylation (EBOV VP30): 2.7 fold | toxicity (Vero-E6 cells): without any detectable cytotoxicity | inhibition of EBOV replication (EBOV-eGFP): completely suppressed | pIC50 (CEM cells [2]): < 4.70 | cell viability [5]: maintains the most viability

CC(OC(=O)c1c2c(nc3ccccc13)/C(=C/c1cccs1)CCC2)C(=O)NC1CC1 (stereo not drawn) [1E7-05]
toxicity (Vero-E6 cells): some toxicity | toxicity (cell monolayer, words) (Vero-E6 cells): visible toxicity | inhibition of EBOV replication (EBOV-eGFP): highly potent

COCCNC(=O)OC(=O)c1c2c(nc3ccccc13)/C(=C\c1ccc(O)cc1)CCC2 [1H4]
effect on cellular proteome (293T cells): did not significantly change | nuclear PP1α-EGFP fluorescence ([3]; 293T cells, nuclear fraction, vs untreated or 1G3): significant decrease | nuclear localization of PP1α in the presence of Tat ([3]; HeLa cells, 10 μM, 18 hours): drastically diminished; also recorded: disrupts | PP1α-EGFP co-precipitated with Tat [6]: reduced; also recorded: prevents the interaction | association of Tat with CDK9/cyclin T1 [6]: no effect | IC50 [1]: 12.5 µM | pIC50 ([1]; Human immunodeficiency virus 1, read-out: Inhibition Tat-induced HIV transcription in CEM cells, IC50): 5.00 | Tat association with PP1 (microcystin precipitation) [7]: reduced | interaction of PP1 with PNUTS or NIPP1 [7]: without any effect; also recorded: no effect | pIC50 ([4]; Human immunodeficiency virus 1, HEK-293T, read-out: Inhibition Tat-induced HIV transcription in 293T cells, IC50): 5.30 | pIC50 (HIV-1; Human immunodeficiency virus 1, read-out: 50% Inhibition of HIV-1 replication): 5.00 | effect on PP1 enzymatic activity (Vmax and Km, KT(pT)IRR peptide) (PP1α): minimal effect; also recorded: no effect | initial velocity V0 of KT(pT)IRR peptide dephosphorylation by PP1α (PP1α; 1H4 300 μM, without compound V0=1.4): 1.3 μM·min^−1 | IC50 (CEM cells [2]): > 25 µM | pIC50 (CEM cells [2]): 4.52 | cytotoxicity / toxicity in T cells (CEM cells [8]): not cytotoxic

CCC(c1nnc(SCC(=O)Nc2ncc(-c3ccc(F)cc3)s2)n1Cc1ccccc1)N(C)C (stereo not drawn) [T5251659]
IC50 [1]: 10 µM | IC50 (CEM cells [2]): 6 µM

CCNC(=O)NC(=O)C(C)OC(=O)c1c2c(nc3ccccc13)/C(=C\c1cccs1)CCC2 (stereo not drawn) [1E7-04]
pIC50 (HIV-1; [9]): 5.52 | toxicity (Vero-E6 cells): some toxicity | toxicity (cell monolayer, words) (Vero-E6 cells): visible toxicity | inhibition of EBOV replication (EBOV-eGFP): highly potent | pIC50 (CEM cells [2]): 5.15

C=C1[C@@H](O)[C@@H]2O[C@]3(CC[C@H](/C=C/[C@@H](C)[C@@H]4CC(C)=C[C@@]5(O[C@H](C[C@@](C)(O)C(=O)O)CC[C@H]5O)O4)O3)CC[C@H]2O[C@@H]1[C@@H](O)C[C@H](C)[C@H]1O[C@@]2(CCCCO2)CC[C@H]1C [okadaic acid, reference compound]
VP30 phosphorylation (EBOV VP30): increased

CCN(CC)S(=O)(=O)c1ccc2c(c1)nc(CCC(=O)N(C)c1ccc(C(F)(F)F)cc1)n2C [T5326526]
IC50 [1]: 15 µM | IC50 (CEM cells [2]): 10 µM

CN(C1CCCCC1)S(=O)(=O)c1ccc(NC(=O)COc2ccccc2-c2ccccc2)cc1 [T5551920]
IC50 [1]: 15 µM | IC50 (CEM cells [2]): 15 µM
